For one assay, the system named is Pig kidneys. Kind of assay: Pig kidney ex vivo perfusion model. The method, then: Pig kidneys were harvested and flushed with cold HTK solution, and then underwent 18 hours of cold static storage in HTK solution. At 18 hours, the kidneys were placed on a perfusion pump and perfused in cold HTK solution with or without 1 μM ACT1 (500 μL/mL). The control kidney in each pair was perfused with cold HTK and its pair was perfused with cold HTK supplemented with ACT1. While on pump, the resistance values were recorded and samples were collected of the perfusate solution every 30 minutes. At the end of 6 hours on the pump, kidneys were taken off of the pump and biopsies were collected and assessed for viability, function, and characteristics as described below.
Tubular necrosis (in this study, a measure of cell death) was assessed by basic histology/pathology methods and subjective scoring. Overall epithelial cell death was determined using EpCam as the marker. The relative expression of Vcam and ICam were determined via RT-qPCR in biopsied tissue at the end of each perfusion pump run. LDH ([…] dehydrogenase) was measured as a marker of tissue injury and was quantified using a colorimetric assay.

A further assay relates to Aortic allografts. Kind of assay: Aortic allograft transplantation, chronic rejection. The assay is classed as in vivo, Balb/c donors, B6 recipients. The method, then:
Aortic allografts were stored for 6 hours or 24 hours, and assessed on Day 28 after transplantation for neointimal hyperplasia (a hallmark of chronic rejection) and T cell infiltration.

The next assay has as its system Cx43. Kind of assay: Gap junction stabilization (Cx43 expression) in pre-treated endothelial cells. Type of assay: cell-based. The following applies: ACT1 pretreatment in UW solution; 1 hour and 24 hours post reperfusion; FIG. 1C. As to the method:
(§1) Endothelial cells (EC) were pre-treated with University of Wisconsin (UW) solution only, or UW solution comprising 50 μM or 100 μM ACT1. Cold storage and reperfusion injury, pro-inflammatory cytokine release, and gap junction stabilization (Cx43 expression) were measured.

In a further assay the test system is Balb/c donor hearts. Kind of assay: Allogenic heart transplantation model with static cold storage of donor hearts. Type of assay: in vivo, Balb/c donors, B6 recipients. Particulars: donor hearts cold stored 6 h at 4° C. in UW solution with ACT1 vs UW alone.
The next assay relates to Endothelial cells (EC). Kind of assay: Cold storage and reperfusion injury of pre-treated endothelial cells, measured by electrical resistance. The assay is classed as cell-based. The following applies: ECs pre-treated with UW solution comprising 50 μM or 100 μM ACT1 vs UW solution only; 1, 3, 12 and 24 hours post-treatment; FIG. 1A. As to the method:
as §1

The test system of a further assay is IL-8. Kind of assay: Pro-inflammatory cytokine (IL-8) release from pre-treated endothelial cells. The assay is classed as cell-based. The following applies: ECs pre-treated with UW solution comprising 50 μM or 100 μM ACT1 vs UW solution only; FIG. 1B. The method, then:
as §1

Where [1] appears, read: biopsied tissue at end of perfusion with ACT1-augmented HTK solution vs HTK, FIG. 7.

Consider RQPKIWFPNRRKPWKKRPRPDDLEI [ACT1], for which the “change in vascular renal resistance” value with Pig kidneys (18 h cold static storage in HTK, then 6 hours pump perfusion in cold HTK with 1 μM ACT1 vs without, matched kidney donor pairs #1 and #2, FIGS. 4A, 4B, 5A, 5B) is recorded as “prevents change in vascular renal resistance”. For the same sequence, in the assay with Pig kidneys (18 h cold static storage in HTK, then 6 hours pump perfusion in cold HTK with 1 μM ACT1 vs without, matched kidney donor pairs #1 and #2, FIGS. 4C, 5C), the “tubular necrosis (histology, subjective scoring)” value is “reduces tubular necrosis”. In addition, in the assay with Pig kidneys (setting [1]), the “endothelial cell activation as measured by Icam expression (RT-qPCR)” value is recorded as “decreases endothelial cell activation” and the “endothelial cell activation as measured by Vcam expression (RT-qPCR)” value is “decreases endothelial cell activation”. Further, in the assay with Pig kidneys (cold HTK perfusion with 1 μM ACT1 vs without, paired marginal kidneys, FIG. 6), the “LDH activity (marker of tissue injury, colorimetric assay)” value is given as “decreases LDH activity”. For the same sequence, the percent intimal expansion result in the assay with Aortic allografts (28 days post-treatment, including aortas stored for 24 hours, FIG. 3B) is given as “significantly reduced”. Besides, in the assay on Aortic allografts (aortic allografts stored 6 hours or 24 hours, assessed on Day 28 after transplantation, FIG. 3A), the “neointimal hyperplasia following aorta transplantation” value is listed as “ameliorates”. Moreover, the Cx43 expression entry with Cx43 is reported as “increased”. In the assay on Balb/c donor hearts (FIG. 2C), the “number of macrophages (MAC-3+ cells)” value is “significantly reduced” and the “number of neutrophils (GR1+ cells)” value is on record as “significantly reduced”. In addition, in the assay with Balb/c donor hearts (FIG. 2D), the “IRI as measured by cardiac troponin I” value was “significantly reduced” and the “IRI as measured by cumulative histology score” value is “significantly reduced”. For the same sequence, the “cold storage and reperfusion injury as measured by electrical resistance” value with Endothelial cells (EC) is “prevented cold storage and reperfusion injury”. Besides, the “IL-8 release from the ECs” value in the assay with IL-8 is on record as “significantly reduced”.
